# Data reported in patent publication US20190167814A1, “Treatment And/Or Prevention Of DNA-Triplet Repeat Diseases Or Disorders” (UNIVERSITÉ DE LAUSANNE, priority 2016, published 2019).
# Legend:
# [1] = tested on: GFP(CAG)101 cells; experiment: Cell cycle analysis upon inhibitor treatment (propidium iodine, flow cytometry); assay type: cell-based, human; conditions: for >2n / >4n / G1 / G2 / S: Cas9 D10A + gCTG cells, DMSO or inhibitor 1 μM, 96 hours, average % of cells, n = 4
# Description: (§1) When using small molecule inhibitors (Table 4), the cells were treated as above, except that 2×10^5 fewer cells/well were used. The medium, along with the dox and the inhibitors, were replaced for another 48 hours of treatment. Cell cycle analysis was performed after 96 hours of treatment. Briefly, the cells were fixed with 100% ethanol and treated with RNAseA (50 μg/mL) before adding propidium iodine (50 μg/mL). Flow cytometry analysis was performed as described below.
# [2] = tested on: GFP(CAG)101 cells; experiment: GFP-based assay for CAG repeat expansions and contractions (flow cytometry of GFP- and GFP+ cells); assay type: cell-based, human; conditions: for frequency of GFP+ cells (contractions) induced by Cas9 nickase + gCTG under inhibitor, in words: inhibitor 1 μM, compared to DMSO controls; for Cas9 nickase + gCTG-induced GFP-/GFP+ cells on siRNA knockdown, in words: 20 nM siRNA, compared to control knockdown of vimentin
# Description: (§2) The GFP(CAG)0 and GFP(CAG)101 cells lines were a kind gift from John H. Wilson^3. The cells tested negative for mycoplasma using the MycoAlert detection kit (Lonza) at the start of our experiments. The GFP(CAG)15, GFP(CAG)18, GFP(CAG)42, GFP(CAG)50, and GFP(CAG)270 were isolated from populations grown for 6 months unperturbed or after transfection with the ZFN. […] The cells were maintained at 37° C. with 5% CO2 in Dulbecco's modified Eagle's medium (DMEM) glutamax, supplemented with 10% Fetal Bovine Serum (FBS), 100 U/mL penicillin (pen), 100 μg/mL streptomycin (strep), 15 μg/mL blasticidine and 150 μg/mL hygromycin. When the cells were destined for flow cytometry, they were kept in DMEM glutamax, with 10% of dialyzed calf serum, along with pen-strep. During the long term culturing, the cells were split 1 to 5 twice a week and the medium was supplemented with blasticidine and hygromycin to ensure continued expression of the TetR and GFP transgenes.
# The plasmids used in this study are found in Table 2. cDNA transfections were performed using 6×10^5 cells/well in 12-well plates using a total of 1 μg of DNA and Lipofectamine 2000 (Life Technologies) per well. The culture medium was replaced 6 hours after transfection and 2 μg/mL of dox, diluted in DMSO, was added. Controls without dox were treated with DMSO alone. Forty-eight hours later, the medium was replaced and dox was freshly added. Flow cytometry, protein extraction, and/or DNA extraction were performed after another 48 hours of incubation.
# The siRNAs used in this study are found in Table 3. When transfecting with both a cDNA and a siRNA, 8×10^5 cells/well were used along with 1 μg of DNA and 20 nM of siRNAs using Lipofectamine 2000. The medium was replaced 6 hours later and dox was added. Forty-eight hours after the first transfection, we performed a second siRNA transfection with RNAiMax (Life technologies) using half of the cells present and 20 nM of siRNA. We collected the cells to assess knockdown efficiency or GFP fluorescence analysis 48 hours later. When transfecting two siRNAs, we used a final siRNA concentration of 40 nM, where 20 nM of each individual siRNA were used.
# as §1
# (§3) In preparation for flow cytometry analysis, cells were re-suspended in phosphate buffered saline (PBS) with 1 mM EDTA to a concentration of about 10^6 cells/mL. For each condition, we measured at least 2×10^5 events using a LSRII from BD. Data analysis was done using Flowing II. FACS was performed using a FACS Aria II (BD) or MoFlo Astrios (Beckman Coulter). For single clone analyses, we re-suspended the cells to a concentration of 2×10^6 cells/mL and sorted the GFP^− and GFP^+ cells. The cells were then expanded in DMEM glutamax supplemented with pen-strep, blasticidine, hygromycin, 5% FBS, and 5% dialyzed calf serum. For DNA isolation, cells were re-suspended to a concentration of 1.4×10^7 cells/mL and we isolated between 4×10^4 and […] from the GFP− and GFP^+ populations. We also isolated cells with GFP intensities between the 25th and 75th percentiles. For viability tests, cells were treated as described above except that 96 hours after the first transfection they were collected in PBS with 1 mM EDTA and 1 μM of TO-PRO-3 was added as a dead cell marker.
# To quantify the fold increase in the number of GFP^+ or GFP^− cells, we first established gates that contained the top or bottom 1% of GFP expressing cells in the control treatment, for example the nickase plasmid transfected together with an empty gRNA vector (pPN10). […]
# [3] = tested on: GFP(CAG)101 cells; experiment: Cell viability (TO-PRO-3 dead cell marker, flow cytometry); assay type: cell-based; conditions: Cas9 D10A + gCTG transfected cells treated with DMSO or inhibitor (1 μM); three experiments
# Description: as §3
# [4] = tested on: GFP(CAG)0 cells; experiment: GFP-based reporter assay in isogenic cell line devoid of CAG repeats; parameters: species or system human; conditions: GFP(CAG)0, no CAG repeats
# Description: as §2, with “When the cells were destined for flow cytometry, they were kept in DMEM glutamax, with 10% of dialyzed calf serum, along with pen-strep. During the long term culturing, the cells were split 1 to 5 twice a week and the medium was supplemented with blasticidine and hygromycin to ensure continued expression of the TetR and GFP transgenes.” left out
# In preparation for flow cytometry analysis, cells were re-suspended in phosphate buffered saline (PBS) with 1 mM EDTA to a concentration of about 10^6 cells/mL. For each condition, we measured at least 2×10^5 events using a LSRII from BD. […]
# To quantify the fold increase in the number of GFP^+ or GFP^− cells, we first established gates that contained the top or bottom 1% of GFP expressing cells in the control treatment, for example the nickase plasmid transfected together with an empty gRNA vector (pPN10). […] Once the GFP gates established, we calculated the percentage of cells from the treated population (e.g., expressing both the Cas9 nickase and the gCTG) falling within these same gates. […]
# [5] = tested on: PARP1/2; experiment: PAR levels after Zeocin treatment (western blot); assay type: cell-based, human; conditions: 100 μg/ml Zeocin, 30 minutes and 24 hours
# Text: Dashed line: dimmest (GFP^−) or brightest (GFP^+) 1% of the cells transfected with the Cas9 nickase vector; the empty gRNA plasmid; and the indicated siRNAs. Right: western blot showing knockdown efficiency by siRNA against XRCC1. B) Left: same as A, but cells treated with the PARP inhibitor Oliparib (n=4, P=0.5 for GFP^− cells and P=0.4 for GFP^+ compared to DMSO treated-cells, using a Wilcoxon U-test). Dashed line: dimmest (GFP^−) or brightest (GFP^+) 1% of the cells transfected with the Cas9 nickase vector together with the empty gRNA plasmid, and treated with either DMSO or Oliparib. Right: PAR levels 30 minutes and 24 hours after treatment with 100 μg/ml of Zeocin. The error bars represent the standard error.
# Protein extraction was done using RIPA buffer and proteinase inhibitor cocktail tablets (Roche, Germany) and at least 10 μg of proteins were loaded onto a 6% or 10% Tris/glycine SDS polyacrylamide gels and transferred onto nitrocellulose membranes. The antibodies used in this study are found in Table 6. An Odyssey Infrared Imager (Licor) was used for signal detection.
# [6] = inhibitor 1 μM in combination with Cas9-nickase and gCTG, vs nickase + pPN10 + inhibitor
Compound,>2n [1] [%],>4n [1] [%],G1 [1] [%],G2 [1] [%],S [1] [%],"frequency of GFP+ cells (contractions) induced by Cas9 nickase + gCTG under inhibitor, in words [2]",Viability % [3] [%],"Cas9 nickase + gCTG-induced GFP-/GFP+ cells on siRNA knockdown, in words [2]",other results
C[C@@H]1CN(CC(=O)Nc2ccc3c(c2)Cc2cccc(-c4cc(=O)cc(N5CCOCC5)o4)c2S3)C[C@H](C)O1 [KU60019],7.5,4.9 ± 1,34.9,37.2,15.3,nearly two-fold reduction,77.2,–,–
"siRNA against XRCC1: siRNA targeting XRCC1, SEQ ID No. 8 (CAGUUUGUGAUCACAGCACAGGAAU; listed as RNA, chemistry not given here)",–,–,–,–,–,–,–,did not affect the GFP expression,–
"siXPA: siRNA targeting XPA, SEQ ID No. 7 (GCUACUGGAGGCAUGGCUA; listed as RNA, chemistry not given here)",–,–,–,–,–,–,–,did not significantly reduce,–
CS(=O)(=O)c1ccc(-c2cnc(N)c(C(=O)Nc3ccccc3)n2)cc1 [VE-821],2.0,10.3 ± 3,41.4,25.4,20.9,–,–,–,"effect on GFP intensities / GFP expression, in words [4]: did not affect GFP expression; fold increase in GFP+ cells [2, 6]: 5.9 fold; fold increase in GFP- cells [2, 6]: 3.1 fold"
O=C(c1cc(Cc2n[nH]c(=O)c3ccccc23)ccc1F)N1CCN(C(=O)C2CC2)CC1 [Oliparib],5.0,5.3 ± 1,40.7,30.0,19.0,Neither treatment changed the frequency,75.9,–,"cell cycle effect, in words [1]: accumulation of G2 cells; PARylation in response to zeocin treatment [5]: inhibiting PARylation"
"siMSH2: siRNA targeting MSH2, SEQ ID No. 6 (UCUGCAGAGUGUUGUGCUU; listed as RNA, chemistry not given here)",–,–,–,–,–,–,–,did not consistently reduce,–
